Source: PubChem BioAssay (NCI)
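48-hour exposure; five concentrations; linearly interpolated endpoints. TGI marks complete inhibition of growth.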

Legend:
Assay in all cases: NCI-60 cell line screen, 48 h
MOLT-4 leukemia = system: MOLT-4 leukemia
SF-295 CNS = system: SF-295 CNS
HOP-92 NSCLC = system: HOP-92 NSCLC
KM12 colon = system: KM12 colon
U251 CNS = system: U251 CNS
SNB-19 CNS = system: SNB-19 CNS
OVCAR-4 ovarian = system: OVCAR-4 ovarian
TK-10 renal = system: TK-10 renal
OVCAR-3 ovarian = system: OVCAR-3 ovarian
SK-OV-3 ovarian = system: SK-OV-3 ovarian

Structure (SMILES) | TGI (MOLT-4 leukemia) | TGI (SF-295 CNS) | TGI (HOP-92 NSCLC) | TGI (KM12 colon) | TGI (U251 CNS) | TGI (SNB-19 CNS) | TGI (OVCAR-4 ovarian) | TGI (TK-10 renal) | TGI (OVCAR-3 ovarian) | TGI (SK-OV-3 ovarian)
CCNc1ccc2c(c1)Cc1ccccc1-2 | > 100 µM | > 100 µM | 82.4 µM | > 100 µM | > 100 µM | > 100 µM | > 100 µM | > 100 µM | > 100 µM | 
COC1OC(Cc2nnc(C)o2)C(OCc2ccccc2)C(OCc2ccccc2)C1OCc1ccccc1 (centres undefined) | 33 µM | 52.6 µM | > 100 µM | 42.3 µM | > 100 µM | > 100 µM | > 100 µM |  | 60.6 µM | > 100 µM
COc1ccc(NC(=O)C(=O)Cc2nc3ccc([N+](=O)[O-])cc3[nH]c2=O)c(OC)c1 | > 100 µM | > 100 µM | > 100 µM | > 100 µM |  | > 100 µM | > 100 µM | > 100 µM | > 100 µM | > 100 µM
COc1nc(N(C)C)nc2c1n(C)c[n+]2C | > 100 µM | > 100 µM | > 100 µM | > 100 µM | > 100 µM | > 100 µM |  | > 100 µM | > 100 µM | > 100 µM
COc1ccc(N(C)C(=O)N(C)c2ccc([N+](=O)[O-])cc2)cc1 | > 100 µM |  | > 100 µM | 91.6 µM | > 100 µM | > 100 µM | > 100 µM | 73.3 µM | 84.2 µM | 91.5 µM
CC[N+](C)(CC)CCC(O)(c1ccccc1)c1ccccc1 | > 100 µM | > 100 µM |  | > 100 µM | > 100 µM | > 100 µM | > 100 µM | > 100 µM | > 100 µM | > 100 µM
COc1ccc(/C=c2\[nH]c3nc(=O)c(N4CCOCC4)c(N)n3c2=O)cc1 | > 100 µM | > 100 µM | > 100 µM | > 100 µM | > 100 µM | > 100 µM | > 100 µM | > 100 µM |  | > 100 µM
N#Cc1nc(CCCCCN2C(=O)c3ccccc3C2=O)oc1N | > 100 µM | > 100 µM |  | > 100 µM | > 100 µM | > 100 µM | > 100 µM | > 100 µM | > 100 µM | > 100 µM
Cc1ccccc1-n1c(C)nc2c1C(=O)c1ccccc1C2=O | > 100 µM | > 100 µM |  | > 100 µM | > 100 µM | > 100 µM | > 100 µM | > 100 µM | 61.8 µM | 
COc1cc2nc(-c3ccc4ccccc4c3)[nH]c(=O)c2cc1OC | > 100 µM | > 100 µM | > 100 µM | > 100 µM |  | 97.2 µM | > 100 µM |  | > 100 µM | > 100 µM
Cc1ccc(C2=NOC(=O)[C@@H]3CCCC[C@@H]23)cc1 | > 100 µM | > 100 µM |  | > 100 µM | > 100 µM | > 100 µM | > 100 µM | > 100 µM | > 100 µM | > 100 µM
CC12N=NN(c3ccc([N+](=O)[O-])cc3)C1(O)c1ccccc1C2=O (centres undefined) |  | > 100 µM |  | > 100 µM | > 100 µM | > 100 µM |  | > 100 µM | > 100 µM | > 100 µM
